Values of other authors, collected in patent US20060079683A1, “Arylthiobenzylpiperidine derivatives” (priority 2004, published 2006).

Assays:
Conditions in all cases: B. Borowsky, et al., Nature Medicine, 2002
MCH1 receptor [1] = target: T1, MCH1 receptor (Rattus norvegicus, UniProt P97639)
T1 construct: host or cells: living rat, endogenous receptor

MCH1 receptor [2] = target: T2, MCH1 receptor (Cavia porcellus, UniProt H0VKT7)
T2 construct: host or cells: living guinea pig, endogenous receptor

MCH1 receptor [3] = target: T1, MCH1 receptor; remark: listed apart in the source

T1 sequence (P97639 whole entry): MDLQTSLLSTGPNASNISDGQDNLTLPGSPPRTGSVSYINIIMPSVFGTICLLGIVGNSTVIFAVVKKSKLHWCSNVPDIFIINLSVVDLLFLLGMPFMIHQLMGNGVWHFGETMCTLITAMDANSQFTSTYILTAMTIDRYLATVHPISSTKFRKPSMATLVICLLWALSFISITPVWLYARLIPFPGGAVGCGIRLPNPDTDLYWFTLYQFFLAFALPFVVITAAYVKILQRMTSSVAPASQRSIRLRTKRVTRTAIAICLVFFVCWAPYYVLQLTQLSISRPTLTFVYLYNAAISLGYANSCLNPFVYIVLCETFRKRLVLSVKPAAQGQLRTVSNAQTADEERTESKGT
T2 sequence (H0VKT7 1-355): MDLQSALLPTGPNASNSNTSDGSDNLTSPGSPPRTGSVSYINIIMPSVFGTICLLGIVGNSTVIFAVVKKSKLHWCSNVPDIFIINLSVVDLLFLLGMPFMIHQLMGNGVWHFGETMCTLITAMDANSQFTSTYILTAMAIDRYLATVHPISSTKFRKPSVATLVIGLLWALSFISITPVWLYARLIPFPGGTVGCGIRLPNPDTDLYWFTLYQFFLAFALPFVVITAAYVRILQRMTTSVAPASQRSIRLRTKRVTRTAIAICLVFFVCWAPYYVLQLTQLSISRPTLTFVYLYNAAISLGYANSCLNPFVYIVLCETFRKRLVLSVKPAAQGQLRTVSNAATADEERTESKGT

In the case of `COCC1=C(C(=O)OC)[C@H](c2ccc(F)c(F)c2)N(C(=O)NCCCN2CCC(c3cccc(NC(C)=O)c3)CC2)C(=O)N1` [SNAP-7941], the “profile in behavioral model of depression and/or anxiety: rat social interaction” value (MCH1 receptor [1]) is given as “profile similar to clinically used anti-depressants and anxiolytics”, the “profile in behavioral model of depression and/or anxiety: guinea pig maternal-separation vocalization” value (MCH1 receptor [2]) is given as “profile similar to clinically used anti-depressants and anxiolytics” and the “profile in behavioral model of depression and/or anxiety: rat forced-swim” value (MCH1 receptor [3]) is given as “profile similar to clinically used anti-depressants and anxiolytics”.
